Holding throughout (assay): relative viability (nuclei count vs DMSO), 5 days (fraction); higher = more cells survive
Compound in one assay: CCOC1=CC=CC=C1N=NC2=C(NN(C2=O)C3=NC(=CS3)C4=CC=CC=C4)C [BAM7]
An outline of the steps: (§1)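 Lung cancer cell lines received five library-drug doses (not always all listed) spaced by √10, pinned on vehicle-anchored 1536-well plates after an overnight stay at 37 °C. Five days later, with no medium change, nuclei were Hoechst-stained, imaged at 4× and counted with MetaXpress. Viability is treated-well nuclei relative to vehicle-well nuclei, as a median across plates. Passing plates had control CV below 25% and at least one doubling.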

Compound in assay [1]: CCn1c(-c2nonc2N)nc2c(C#CC(C)(C)O)ncc(OC[C@H]3CCCNC3)c21
An outline of the steps: as §1

Compound in the assay “BAM7 + Trametinib”: CCOC1=CC=CC=C1N=NC2=C(NN(C2=O)C3=NC(=CS3)C4=CC=CC=C4)C [BAM7] + CC(=O)Nc1cccc(-n2c(=O)n(C3CC3)c(=O)c3c(Nc4ccc(I)cc4F)n(C)c(=O)c(C)c32)c1 [Trametinib] (partner 0.02 µM)
An outline of the steps: (§2)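 Relative viability divides the nuclei count in treated wells by that in vehicle wells. Lung cancer cell lines were seeded in 1536-well plates, dosed by pin tool the next day, and fixed and stained after 5 days in one step with final 0.05% Triton X-100, 1% formaldehyde and 1 ug/ml Hoechst. Dosing was a single drug or a fixed anchor-drug dose plus five library-drug doses (not always all listed) in √10 steps, and values are medians of duplicate plates imaged at 4×.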

Compound in assay [2]: CCn1c(-c2nonc2N)nc2c(C#CC(C)(C)O)ncc(OC[C@H]3CCCNC3)c21 + CC1(C)CCC(c2ccc(Cl)cc2)=C(CN2CCN(c3ccc(C(=O)NS(=O)(=O)c4ccc(N[C@H](CCN5CCOCC5)CSc5ccccc5)c(S(=O)(=O)C(F)(F)F)c4)cc3)CC2)C1 [Navitoclax] (partner 0.5 µM)
An outline of the steps:
as §2

These results are taken from the supplement of paper PMC10307832.

Take NCI-H2405: the relative viability with BAM7 (0.5 µM) worked out at 0.989; in the assay with BAM7 (5 µM), 1.13; in the assay with BAM7 (15.81 µM), 1.03; in the assay with BAM7 (50 µM), 1.08; in assay [1] (0.01 µM), 1.05; in assay [1] (0.03162 µM), 0.934. Also, the relative viability worked out at 0.973 in assay [1] (0.1 µM); 0.969 in assay [1] (0.3162 µM); 0.993 in assay [1] (1 µM); 0.596 in the assay with BAM7 + Trametinib (first compound 0.5 µM); 0.706 with BAM7 + Trametinib (first compound 5 µM); 0.477 with BAM7 + Trametinib (first compound 15.81 µM). Further, the relative viability with BAM7 + Trametinib (first compound 50 µM) came out at 0.715; in assay [2] (first compound 0.01 µM) it was 0.892; in assay [2] (first compound 0.03162 µM), 0.873; in assay [2] (first compound 0.3162 µM), 0.883; in assay [2] (first compound 1 µM), 1.
Consider NCI-H322M, for which the relative viability amounted to 0.922 in the assay with BAM7 (0.5 µM); 0.96 in the assay with BAM7 (5 µM); 1 with BAM7 (15.81 µM); 0.991 in the assay with BAM7 (50 µM); 0.887 in assay [1] (0.01 µM); 0.763 in assay [1] (0.03162 µM). In addition, the relative viability was determined as 0.839 in assay [1] (0.1 µM); 0.827 in assay [1] (0.3162 µM); 0.828 in assay [1] (1 µM); 0.525 with BAM7 + Trametinib (first compound 0.5 µM); 0.577 with BAM7 + Trametinib (first compound 5 µM); 0.496 in the assay with BAM7 + Trametinib (first compound 15.81 µM). Moreover, the relative viability stood at 0.571 with BAM7 + Trametinib (first compound 50 µM); 1.25 in assay [2] (first compound 0.01 µM); 1.27 in assay [2] (first compound 0.03162 µM); 1.17 in assay [2] (first compound 0.1 µM); 1.13 in assay [2] (first compound 0.3162 µM); 1.23 in assay [2] (first compound 1 µM).
NCI-H2170: the relative viability in the assay with BAM7 (0.5 µM) is 0.972; with BAM7 (5 µM), 0.993; in the assay with BAM7 (15.81 µM), 0.904; with BAM7 (50 µM), 0.958; in assay [1] (0.01 µM) it was 0.962; in assay [1] (0.03162 µM), 1.01. Further, the relative viability in assay [1] (0.1 µM) was 0.996; in assay [1] (0.3162 µM), 0.91; in assay [1] (1 µM), 0.958; in the assay with BAM7 + Trametinib (first compound 0.5 µM) it was 0.917; in the assay with BAM7 + Trametinib (first compound 5 µM), 0.799; with BAM7 + Trametinib (first compound 15.81 µM), 0.814. In addition, the relative viability worked out at 0.816 with BAM7 + Trametinib (first compound 50 µM); 0.613 in assay [2] (first compound 0.01 µM); 0.585 in assay [2] (first compound 0.03162 µM); 0.64 in assay [2] (first compound 0.1 µM); 0.493 in assay [2] (first compound 0.3162 µM); 0.529 in assay [2] (first compound 1 µM).
With NCI-H1395, the relative viability in the assay with BAM7 (0.5 µM) was 0.884; with BAM7 (5 µM) it was 1.01; with BAM7 (15.81 µM), 0.944; in the assay with BAM7 (50 µM) it was 1.1; in assay [1] (0.01 µM), 0.848; in assay [1] (0.03162 µM) it was 0.693. The relative viability in assay [1] (0.1 µM) is 0.762; in assay [1] (0.3162 µM), 0.737; in assay [1] (1 µM), 0.705; in the assay with BAM7 + Trametinib (first compound 0.5 µM), 0.972; with BAM7 + Trametinib (first compound 5 µM), 1.28; with BAM7 + Trametinib (first compound 15.81 µM), 0.946. Further, the relative viability with BAM7 + Trametinib (first compound 50 µM) came to 1.06; in assay [2] (first compound 0.01 µM), 1.04; in assay [2] (first compound 0.03162 µM) it was 1.14; in assay [2] (first compound 0.1 µM) it was 1.11; in assay [2] (first compound 0.3162 µM), 1.08; in assay [2] (first compound 1 µM) it was 0.882.
Turning to NCI-H838, the relative viability amounted to 1.03 with BAM7 (0.5 µM); 1.04 with BAM7 (5 µM); 0.946 in the assay with BAM7 (15.81 µM); 1.06 with BAM7 (50 µM); 1.01 in assay [1] (0.01 µM); 1 in assay [1] (0.03162 µM). Besides, the relative viability in assay [1] (0.1 µM) was determined as 0.993; in assay [1] (0.3162 µM) it was 0.846; in assay [1] (1 µM), 0.963; in the assay with BAM7 + Trametinib (first compound 0.5 µM) it was 0.504; in the assay with BAM7 + Trametinib (first compound 5 µM), 0.524; with BAM7 + Trametinib (first compound 15.81 µM), 0.498. The relative viability with BAM7 + Trametinib (first compound 50 µM) came out at 0.494; in assay [2] (first compound 0.01 µM), 1.15; in assay [2] (first compound 0.03162 µM), 1.22; in assay [2] (first compound 0.1 µM), 1.2; in assay [2] (first compound 0.3162 µM) it was 1.03; in assay [2] (first compound 1 µM) it was 1.19.
In the case of CAL-12T, the relative viability with BAM7 (0.5 µM) was found to be 1.05; in the assay with BAM7 (5 µM), 1.01; with BAM7 (15.81 µM) it was 0.952; with BAM7 (50 µM) it was 1.07; in assay [1] (0.01 µM), 1.12; in assay [1] (0.03162 µM), 0.997. For the same cell line, the relative viability in assay [1] (0.1 µM) turned out to be 0.94; in assay [1] (0.3162 µM) it was 0.973; in assay [1] (1 µM), 0.997; in the assay with BAM7 + Trametinib (first compound 0.5 µM), 0.381; with BAM7 + Trametinib (first compound 5 µM), 0.333; in the assay with BAM7 + Trametinib (first compound 15.81 µM), 0.303. Further, the relative viability in the assay with BAM7 + Trametinib (first compound 50 µM) was found to be 0.384; in assay [2] (first compound 0.01 µM) it was 1.24; in assay [2] (first compound 0.03162 µM) it was 1.22; in assay [2] (first compound 0.1 µM), 1.3; in assay [2] (first compound 0.3162 µM) it was 1.33; in assay [2] (first compound 1 µM) it was 1.06.
